Literature values as cited in patent publication US20180369136A1, “DEVICES AND METHODS FOR TRANSDERMAL TREATMENT OF BASAL CELL CARCINOMA” (NORTH CAROLINA STATE UNIVERSITY, priority 2015, published 2018).

Assays:
yeast and bacteria cells = details: in vitro
[1] = test system: immunosuppressed syngeneic mice; details: in vivo
[2] = test system: basal cell carcinoma tumor; details: oral itraconazole
[3] = test system: Hedgehog signaling in basal cell carcinoma; details: basal cell carcinoma in vitro model

Q: What does the source list for `O=c1[nH]cc(F)c(=O)[nH]1` [fluorouracil, 5-fluorouracil]?
A: mutagenicity (yeast and bacteria cells): causes mutations; mutagenicity [1]: causes mutations

Q: With `CCC(C)n1ncn(-c2ccc(N3CCN(c4ccc(OCC5COC(Cn6cncn6)(c6ccc(Cl)cc6Cl)O5)cc4)CC3)cc2)c1=O` (stereo not drawn) [itraconazole] as the compound, how does the side effects [2] read?
A: grade 4 congestive heart failure

Q: What about the “solubility in ethanol and water” value (ethanol and water) of the same compound?
A: poor solubility

Q: For `C=C1CC[C@H](O)C/C1=C/C=C1\CCC[C@]2(C)[C@@H]([C@H](C)CCCC(C)C)CC[C@@H]12` [vitamin D3], which Hedgehog signaling [3] is on record?
A: suppress Hedgehog signaling

Q: And the “solubility in aqueous media” value (aqueous media)?
A: does not readily dissolve
